Test results published in patent US8637568B2, “Serotonin reuptake inhibitors” (Theravance, Inc., priority 2010, dated 2014).

Tests used:
[1] = target: T1, human recombinant serotonin transporter (hSERT) (Homo sapiens, UniProt P31645); assay: hSERT binding assay (3H-citalopram membrane radioligand binding); settings: inhibition of 3H-citalopram binding to membranes from HEK-293 cells expressing hSERT; Cheng-Prusoff; read-out: SERT pKi (converted)
T1 construct: expressed in transfected cells; host or cells: HEK-293 (stably transfected), membrane preparation
T1 sequence (P31645 whole entry): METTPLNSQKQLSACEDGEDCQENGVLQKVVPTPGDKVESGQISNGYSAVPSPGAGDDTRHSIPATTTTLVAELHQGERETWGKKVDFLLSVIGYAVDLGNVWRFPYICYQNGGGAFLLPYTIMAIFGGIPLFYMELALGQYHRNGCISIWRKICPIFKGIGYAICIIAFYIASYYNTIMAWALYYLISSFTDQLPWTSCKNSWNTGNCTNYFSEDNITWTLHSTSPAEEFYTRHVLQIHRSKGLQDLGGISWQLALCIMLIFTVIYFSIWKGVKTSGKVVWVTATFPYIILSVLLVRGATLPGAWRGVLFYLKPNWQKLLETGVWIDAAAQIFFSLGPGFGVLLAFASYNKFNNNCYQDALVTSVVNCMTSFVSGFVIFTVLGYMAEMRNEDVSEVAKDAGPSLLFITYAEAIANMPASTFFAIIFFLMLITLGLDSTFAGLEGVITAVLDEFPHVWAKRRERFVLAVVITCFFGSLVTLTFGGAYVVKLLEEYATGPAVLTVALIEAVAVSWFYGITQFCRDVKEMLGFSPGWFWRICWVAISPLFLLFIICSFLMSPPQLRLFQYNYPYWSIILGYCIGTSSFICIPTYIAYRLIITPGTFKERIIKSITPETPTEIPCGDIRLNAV
Method: Protein concentration of the membrane suspension was determined using a Bio-Rad Bradford Protein Assay kit. Membranes were snap frozen and stored at −80° C.
Following a 60 minute incubation at 22° C. […] IC50 values were generated from concentration response curves using the Sigmoidal Dose Response (variable slope) algorithm in Prism GraphPad.

[2] = target: T2, human recombinant SERT (HEK293-hSERT cells) (Homo sapiens, UniProt P31645); assay: hSERT neurotransmitter uptake assay; format: cell-based; settings: serotonin reuptake inhibition in HEK293-hSERT cells; read-out: SERT pIC50 (converted)
T2 construct: expressed in transfected cells; host or cells: HEK293 (stably transfected), whole cells
T2 sequence (P31645 whole entry): as above
Method: HEK293 cells stably-transfected with human recombinant SERT (HEK293-hSERT) were grown in Dulbecco's Modified Eagle's Medium supplemented with 10% dialyzed fetal bovine serum, 100 µg/ml penicillin, 100 µg/ml streptomycin, 2 mM L-glutamine, and 250 μg/ml of the aminoglycoside antibiotic G418. Cells were incubated in a 5% CO2, humidified incubator at 37° C.
In pre-incubation studies, test compound was added to cells for 30 minutes at 37° C. prior to the addition of fluorescent substrate. […] For real-time measurements, compounds were either preincubated (as above) or mixed with substrate prior to addition, and kinetic measurements, relative fluorescence units (RFU integrated over 0.5 ms),were made using a cycle time of 1 min.

| SMILES | Ki [1] [nM] | IC50 [2] [nM] |
| --- | --- | --- |
| O=C(O)c1ccc(S(=O)(=O)NC[C@@H](Oc2ccc(C(F)(F)F)cc2)[C@H]2CCNC2)cc1 [Example 3-21, 4-[(S)-2-(S)-Pyrrolidin-3-yl-2-(4-trifluoromethylphenoxy)ethylsulfamoyl]-benzoic acid] | ≤ 100 | ≤ 100 |
| CS(=O)(=O)NC[C@@H](Oc1ccc(C(F)(F)F)cc1)[C@H]1CCNC1 [Example 3-1, N-[(S)-2-(S)-Pyrrolidin-3-yl-2-(4-trifluoromethylphenoxy)ethyl]-methanesulfonamide] | ≤ 10 | ≤ 10 |
| CC(=O)N(C[C@@H](Oc1ccc(C(F)(F)F)cc1)[C@H]1CCNC1)S(C)(=O)=O [Example 3-4, N-Acetyl-N-[(S)-2-(S)-pyrrolidin-3-yl-2-(4-trifluoromethylphenoxy)ethyl]-methanesulfonamide] | ≤ 10 | ≤ 10 |
| CN(C)S(=O)(=O)C[C@@H](Oc1ccc(C(F)(F)F)cc1)[C@H]1CCNC1 [Example 7-1, (S)-2-(S)-Pyrrolidin-3-yl-2-(4-trifluoromethylphenoxy)ethanesulfonic acid dimethylamide] |  | ≤ 10 |
